Data: patent US20250328351A1, “CARBONIC ANHYDRASE INHIBITORS AND ANTIBIOTICS AGAINST MULTIDRUG RESISTANT BACTERIA” (Purdue Research Foundation, priority 2018, published 2025)
Converted amounts (≈) assume the structure as drawn. Like-named read-outs stand apart in the source and are kept apart here.

Legend:
Format in all cases: cell-based
[1] = tested on: Enterococcus faecalis S613 HM-334; assay: MIC, broth microdilution (CLSI)
Experimental: (§1) The minimum inhibitory concentrations (MICs) of the compounds and control drugs were determined using the broth microdilution method, according to guidelines outlined by the Clinical and Laboratory Standards Institute (CLSI). Enterococci strains were grown aerobically overnight on tryptone soya agar plates at 37° C., afterwards a bacterial solution equivalent to 0.5 McFarland standard was prepared and diluted in tryptone soy broth (TSB) to achieve a bacterial concentration of about 5×10^5 CFU/mL and seeded in 96-well well plates. Compounds and control drugs were added in the first row of the 96-well plates and serially diluted along the plates. Plates were then incubated aerobically at 37° C. for 18-20 hours. MICs reported in Table 1 are the minimum concentration of the compounds/control drugs that could inhibit completely the visual growth of the bacteria.
(§2) The minimum inhibitory concentrations (MICs) of CAIs were tested against clinical isolates of vancomycin sensitive and vancomycin resistant Enterococci strains as per the guidelines provided by the Clinical and Laboratory Standards Institute (CLSI). The selected strains of Enterococci were streaked on Tryptic Soy Agar (TSA) plates and let grow for 24 hours at 37° C. Afterwards, a bacterial solution equivalent to 0.5 McFarland standard was prepared and diluted in tryptone soy broth (TSB) or brain heart infusion broth (BHIB) to achieve a bacterial concentration of about 5×10^5 CFU/mL and seeded in 96-well well plates. Compounds and control drugs were added in the first row of the 96-well plates and serially diluted along the plates. Plates were then incubated aerobically at 37° C. for 18-20 hours. MICs reported in Table 5 are the minimum concentration of the compounds/control drugs that could inhibit completely the visual growth of the bacteria.
The minimum inhibitory concentrations (MICs) of CAIs were tested against vancomycin resistant Enterococcus faecalis—S613 HM 334 strain as per the guidelines provided by the Clinical and Laboratory Standards Institute (CLSI). The selected strain was streaked on Tryptic Soy Agar (TSA) plate and let grow for 24 hours at 37° C. […] Compounds and control drugs were added in the first row of the 96-well plates and serially diluted along the plates. Plates were then incubated aerobically at 37° C. for 18-20 hours. MICs reported in table (6) are the minimum concentration of the compounds/control drugs that could inhibit completely the visual growth of the bacteria.

[2] = tested on: Bacteroides dorei CL02T12C06 HM-719; assay: MIC against human normal gut microbiota; settings: Phocaeicola dorei; Table 3; BHIS broth, anaerobic, 48 hours; read-out: MIC
Experimental: (§3) Three different bacterial strains were used in this experiment; Bifidobacterium (anaerobic Gram positive bacteria), Bacteroides (anaerobic Gram negative bacteria) and Lactobacillus (microaerophilic Gram positive bacteria). Bifidobacterium and Bacteroides were first grown for 48 hours at 37° C., anaerobically using brain heart infusion supplemented (BHIS) agar (Brain heart infusion agar supplemented with hemin, vitamin K and L-cysteine). Lactobacillus was cultivated on MRS agar and incubated in presence of 5% CO2 for 48 hours at 37° C. Each bacterium was suspended in phosphate buffered saline (PBS) to produce a suspension with optical density that matches 0.5 McFarland standard and diluted in brain heart infusion supplemented broth (for Bifidobacterium and Bacteroides) or in MRS broth (for Lactobacillus) to achieve bacterial concentration of approximately 5×10^5 CFU/ml. Bacteria were then seeded in 96-well plates containing serial dilutions of the compounds and incubated as mentioned previously for 48 hours.

[3] = tested on: Bacteroides fragilis CL07T00C01 HM-709; assay: MIC against human normal gut microbiota; settings: Table 3, BHIS broth, anaerobic, 48 hours, read-out: MIC
Experimental: as §3

[4] = tested on: Bifidobacterium breve JCP7499 HM 1120; assay: MIC against human normal gut microbiota; settings: JCP7499HM1120, Table 3, BHIS broth, anaerobic, 48 hours, read-out: MIC
Experimental: as §3

[5] = tested on: Enterococcus faecium E417 - HM-965; assay: MIC, broth microdilution (CLSI); settings: Table 5
Experimental: as §1, §2

[6] = tested on: Enterococcus faecium Patient #2-1 - NR-31909; assay: MIC, broth microdilution (CLSI); settings: Table 5; TSB
Experimental: as §1, §2

[7] = tested on: Enterococcus fecalis Strain SF 24397 NR31970; assay: MIC, broth microdilution (CLSI); settings: Table 5; TSB
Experimental: as §1, §2

[8] = Enterococcus faecalis, S613HM334, Table 1, TSB, read-out: MIC
[9] = Enterococcus faecalis, S613HM334, Table 7, TSB, read-out: MIC
[10] = Enterococcus faecalis, S613HM334, Table 5, BHIB, read-out: MIC
[11] = Enterococcus faecalis, S613HM334, Table 5, TSB, read-out: MIC
[12] = Enterococcus faecalis, S613HM334, Table 6, TSB in presence of 4% human serum albumin, read-out: MIC

With `CCC(=O)Nc1nnc(S(N)(=O)=O)s1` [CAI0009, N-(5-Sulfamoyl-1,3,4-thiadiazol-2-yl)propionamide] as the compound, how does the MIC [1, 8] read?
Its MIC is 2 µg/mL (≈ 8.46 µM).

What about the MIC [1, 9] of the same compound?
Its MIC is 2 µg/mL (≈ 8.46 µM).

What about the MIC [2] of the same compound?
Its MIC is > 64 µg/mL.

And the MIC [3]?
Its MIC is > 64 µg/mL.

And the MIC [4]?
The MIC was > 64 µg/mL.

Which MIC [1, 9] does the source give for `CC(=O)Nc1nnc(S(C)(=O)=O)s1` [CAI0025, N-(5-(Methylsulfonyl)-1,3,4-thiadiazol-2-yl)acetamide] here?
The MIC was > 128 µg/mL.

Which results are given for `CCN[C@H]1CN(CCCOC)S(=O)(=O)c2sc(S(N)(=O)=O)cc21` [Brinzolamide]?
MIC [1, 10]: > 128 µg/mL; MIC [1, 11]: 2 µg/mL (≈ 5.21 µM); MIC [1, 12]: > 256 µg/mL

How did the MIC [1, 10] turn out when `CCOc1ccc2nc(S(N)(=O)=O)sc2c1` [Ethoxzolamide] was run?
The MIC was > 128 µg/mL.

What about the MIC [1, 11] of the same compound?
The MIC was 1 µg/mL (≈ 3.87 µM).

What about the MIC [1, 12] of the same compound?
The MIC was > 256 µg/mL.

With `CC(=O)NC[C@H]1CN(c2ccc(N3CCOCC3)c(F)c2)C(=O)O1` [Linezolid] as the compound, how does the MIC [1, 8] read?
The MIC was 1 µg/mL (≈ 2.96 µM).

What about the MIC [1, 10] of the same compound?
The MIC was 1 µg/mL (≈ 2.96 µM).

And the MIC [1, 11]?
The MIC was 1 µg/mL (≈ 2.96 µM).

What about the MIC [1, 9] of the same compound?
Its MIC is 1 µg/mL (≈ 2.96 µM).

What about the MIC [2] of the same compound?
Its MIC is 1 µg/mL (≈ 2.96 µM).

What about the MIC [3] of the same compound?
The MIC was 2 µg/mL (≈ 5.93 µM).

What about the MIC [4] of the same compound?
Its MIC is ≤ 0.5 µg/mL.

What does the source list for `NS(=O)(=O)c1cc(Cl)c(Cl)c(S(N)(=O)=O)c1` [Dichlophenamide, reference compound]?
MIC ([5]; BHIB): 16 µg/mL (≈ 52.4 µM); MIC ([5]; TSB): 1 µg/mL (≈ 3.28 µM); MIC [6]: 2 µg/mL (≈ 6.55 µM); MIC [7]: 16 µg/mL (≈ 52.4 µM); MIC ([1]; Table 5, TSB): 16 µg/mL (≈ 52.4 µM)

`NS(=O)(=O)c1nnc(NC(=O)C2CCCC2)s1` [CAI0023, N-(5-Sulfamoyl-1,3,4-thiadiazol-2-yl)cyclopentanecarboxamide] was tested. Which MIC [1, 9] did it give?
The MIC was 0.5 µg/mL (≈ 1.81 µM).

Which results are given for `CC(=O)/N=c1/sc(S(N)(=O)=O)nn1C` [Methazolamide]?
MIC [1, 10]: > 128 µg/mL; MIC [1, 11]: 1 µg/mL (≈ 4.23 µM); MIC [1, 12]: > 256 µg/mL

Which MIC [1, 9] does the source give for `NS(=O)(=O)c1nnc(NC(=O)C2CC2)s1` [CAI0020, N-(5-Sulfamoyl-1,3,4-thiadiazol-2-yl)cyclopropanecarboxamide] here?
The MIC was 0.007 µg/mL (≈ 0.0282 µM).

With `NS(=O)(=O)c1nnc(NC(=O)CC2CCCC2)s1` [CAI0021, 2-Cyclopentyl-N-(5-sulfamoyl-1,3,4-thiadiazol-2-yl)acetamide] as the compound, how does the MIC [1, 9] read?
The MIC was 0.03 µg/mL (≈ 0.103 µM).

With `CC(C)CC(=O)Nc1nnc(S(N)(=O)=O)s1` [CAI0026, 3-Methyl-N-(5-sulfamoyl-1,3,4-thiadiazol-2-yl)butanamide] as the compound, how does the MIC [1, 9] read?
Its MIC is 0.25 µg/mL (≈ 0.946 µM).

Which results are given for `NS(=O)(=O)c1nnc(NC(=O)c2ccccc2)s1` [CAI0012, N-(5-Sulfamoyl-1,3,4-thiadiazol-2-yl)benzamide]?
MIC [1, 8]: 4 µg/mL (≈ 14.1 µM); MIC [1, 9]: 4 µg/mL (≈ 14.1 µM); MIC [2]: > 64 µg/mL; MIC [3]: > 64 µg/mL; MIC [4]: > 64 µg/mL

How did the MIC [1, 9] turn out when `NS(=O)(=O)c1nnc(NC(=O)CC2CCCCC2)s1` [CAI0029, 2-Cyclohexyl-N-(5-sulfamoyl-1,3,4-thiadiazol-2-yl)acetamide] was run?
Its MIC is 0.015 µg/mL (≈ 0.0493 µM).

Which MIC [1, 9] does the source give for `NS(=O)(=O)c1nnc(NC(=O)C2CCC2)s1` [CAI0018, N-(5-Sulfamoyl-1,3,4-thiadiazol-2-yl)cyclobutanecarboxamide] here?
Its MIC is 1 µg/mL (≈ 3.81 µM).

With `CC(C)(C)CC(=O)Nc1nnc(S(N)(=O)=O)s1` [CAI0028, 3,3-Dimethyl-N-(5-sulfamoyl-1,3,4-thiadiazol-2-yl)butanamide] as the compound, how does the MIC [1, 9] read?
Its MIC is 0.03 µg/mL (≈ 0.108 µM).

`CCCCCCC(=O)Nc1nnc(S(N)(=O)=O)s1` [CAI0027, N-(5-Sulfamoyl-1,3,4-thiadiazol-2-yl)heptanamide] was tested. Which MIC [1, 9] did it give?
The MIC was 0.007 µg/mL (≈ 0.0239 µM).

How did the MIC [1, 9] turn out when `NS(=O)(=O)c1nnc(NC(=O)C2CCCCC2)s1` [CAI0022, N-(5-Sulfamoyl-1,3,4-thiadiazol-2-yl)cyclohexanecarboxamide] was run?
Its MIC is 0.25 µg/mL (≈ 0.861 µM).
